Test results as given in patent publication US20220151887A1 (AQUA BANK CO.,LTD., priority 2019, published 2022).

Key:
[1] = Procedure: (§1) The selection criteria were good health and no smoking. The subjects were allowed to sit in a sitting position for 30 minutes after entering a test room set at a room temperature of 24° C. and a relative humidity of 50% to acclimatize to the experimental environment. After acclimation, physiological measurements were conducted. As the physiological measurements, skin temperature measurements were performed.
<<Evaluation of Pupil Contraction Rate in Pupil Reaction to Light by Measuring Pupil Reaction to Light (Single Time Evaluation Test (FIG. 6))>>
After confirming that the pupil dilatation was stable, light stimulation was given for 0.1 seconds. […] The pupil contraction rate (CR), which is the rate of pupil contraction, was determined by the following expression:
Note that the pupil rapidly dilates after it contracts, and the pupil expanding speed (vd) at that time reflects the state of sympathetic nervous activity. The predominance of sympathetic nervous activity and parasympathetic nervous activity in autonomous nervous activity was determined by analysis of changes in pupil diameter.

[2] = remark: listed apart in the source
Procedure: as §1
<<Evaluation of Sympathetic Nervous Activity by Measuring Skin Temperature ((Single Time Evaluation Test (FIG. 7))>>
Since many of the peripheral blood vessel networks are controlled by sympathetic nervous activity, the predominance or inferiority of sympathetic nervous activity can be evaluated by measuring changes in blood flow in the peripheral site or changes in skin temperature in the peripheral site. Therefore, in this verification, the change in skin temperature was used as the index. In other words, changes in the skin temperatures (at the center of the forehead and the first segment pad of the index finger) of the peripheral site were measured by a temperature sensor (manufactured by Gram Corporation). The increased skin temperature in the test product is determined by the following expression:
where H1 is the temperature of the forehead center part of the control, F1 is the temperature of the finger pad center part of the control, H2 is the temperature of the forehead center part of the sample, and F2 is the temperature of the finger pad center part of the sample.
Note that, in the measurement data analysis in the physiological evaluation, the difference between the control and the blank and the difference between the test product and the blank were compared using the t-test. The significance level of the t-test was set to less than 5%.

[3] = hydrogen continuous use period 2 weeks, cheek, not significant vs non-continuous use period
Procedure: (§2) During the test period, each subject was required to perform the same skin care method as they do on a daily basis, and not to add or change cosmetics or supplements.
In other words, the subjects were divided into two groups, Group A and Group B each having 11 subjects. […] Skin physiological measurements were conducted at the start of the test (zero week), the second and fourth weeks (actually, the subjects also answered questionnaires of the 30 items of the stress checklist and the multifaceted emotion scale for verification of influences on stress, which is a factor of increased skin metabolism, as is omitted here). […]
(§3) The skin physiological measurements include: the stratum corneum water content; transepidermal water loss; skin viscoelasticity; skin color; facial image analysis by photographing with a digital imaging device (VSIA); and skin blood flow measurement with a non-contact blood flow meter. […] In the measurements listed below, the cheek site, which was the measurement site, was measured after 15 minutes of acclimation in a constant temperature and humidity chamber (temperature 20±2° C., humidity 50±10%) after the face washing. What was measured in each measurement are described below.
The degree of skin moisturization was determined by measuring the stratum corneum water content. […]

[4] = remark: listed apart in the source
Procedure: as §2
(§4) In other words, the subjects were divided into two groups, Group A and Group B each having 11 subjects. […] Skin physiological measurements were conducted at the start of the test (zero week), the second and fourth weeks (actually, the subjects also answered questionnaires of the 30 items of the stress checklist and the multifaceted emotion scale for verification of influences on stress, which is a factor of increased skin metabolism, as is omitted here). The measurement items include: the stratum corneum water content; transepidermal water loss; skin viscoelasticity; skin color; facial image analysis by photographing with a digital imaging device (VSIA); and skin blood flow measurement with a non-contact blood flow meter.
(§5) The subjects executed the inhalation for five minutes each time in the morning and evening and approximately 1 hour after each meal, as in the single time test, with the goal of using five times a day.
as §3, with “below. […]” for “below.”
(§6) The p-value was calculated as the probability to determine whether there was a statistically significant difference in the difference average values of the respective groups, and the effect size was calculated as an index representing the magnitude of the difference between the difference average values, so that the two groups are compared with each other.

[5] = hydrogen continuous use period 2 weeks, difference not significant
Procedure: as §2, §4, §5, §3
The measurements were performed at zero, second and fourth weeks.

[6] = remark: listed apart in the source
Procedure: as §2, §4, §5, §3
Skin images of the measurement site were photographed using VISIA (registered trademark) Evolution (Canfield Imaging Systems), and each skin property was analyzed. The software attached to the device was used to measure the scores of pores, spots, wrinkles, texture, redness, porphyrin, and brown spots. The measurements were performed at zero, second and fourth weeks.
as §6

[7] = hydrogen continuous use period vs non-continuous use period
[8] = hydrogen continuous use period vs nonuse period

[HH] [hydrogen]
pupil expanding speed (vd) ([1]; after hydrogen inhalation (not shown)): almost unchanged
pupil contraction rate in the pupil reaction to light ([1]; after hydrogen inhalation for 1, 3, 5, 7 and 9 minutes (FIG. 6)): increased significantly in a time-dependent manner
pupil contraction rate CR ([1]; after hydrogen inhalation, especially 5 minutes or more, vs before inhalation, p<0.001): significantly increased
skin temperature of the index finger, average increase ([2]; hydrogen inhalation for 5 minutes vs control, 17 subjects, p<0.001): 3.6 °C
skin temperature of the forehead, change ([2]; hydrogen inhalation for 5 minutes vs spontaneous breathing control): hardly found to change
skin temperature of the index finger, increase in individual subjects ([2]; hydrogen inhalation for 5 minutes, some subjects): ≥ 6 °C
skin (stratum corneum) water content, difference average value ([3]; 5 min about five times a day): +34.9 μS
transepidermal water loss, difference average value [3]: +34.9
instantaneous skin return rate R7 (Ur/Uf), difference average value ([4]; hydrogen continuous use period 2 weeks, cheek, p 0.028 vs nonuse period): 0.01
R7 (Ur/Uf) effect size ([4]; hydrogen continuous use period vs hydrogen nonuse period): 0.74
skin return rate R2, difference average value ([4]; hydrogen use period 2 weeks, cheek, p 0.076 vs nonuse period): 0.01
skin color ΔL* (black and white degree), difference average value ([5]; cheek): +0.30
skin color Δa* (redness degree), difference average value ([5]; cheek): −0.23
skin color Δb* (yellowness degree), difference average value ([5]; cheek): −0.20
skin blood flow changes, difference average value ([5]; entire face): −0.20
number of porphyrins, difference average value ([6]; hydrogen continuous use period 2 weeks, difference not significant): −103.05
number of spots, difference average value ([6]; hydrogen continuous use period 2 weeks, p 0.0012 vs nonuse period): −1.8
redness of the skin color, difference average value ([6]; hydrogen continuous use period 2 weeks, p 0.042 vs non-continuous use period): −5.1
number of brown spots, difference average value ([6]; hydrogen continuous use period 2 weeks, p 0.046 vs nonuse period): −13.7
VISIA pores, measured values [6, 7]: no difference
VISIA texture, measured values [6, 7]: no difference
VISIA wrinkles, measured values [6, 7]: no difference
redness, effect size [6, 7]: 0.65
number of brown spots, effect size [6, 8]: 0.68
number of spots, effect size [6, 8]: 0.86
